Test results as given in US9826761B2, “Compositions and methods for mitigating dietary sulfur in animals” (SarTec Corporation, priority 2008, dated 2017).

Assay: Titration of approx. 200 mM sulfide in fresh rumen fluid with 1 M metal chloride, silver/sulfide electrode
Parameters: species or system Holstein cows
Conditions: for mVolts (Negative Value): ~200 mM sulfide, fresh rumen fluid
Description: Fresh undiluted rumen fluid was obtained from rumen fistulated Holstein cows. 1.5 ml of a saturated solution of Na2S in water (approximately 2.7 M) was added to 18.5 ml of the rumen fluid. Sodium sulfide solutions were quantified by titration using a silver/sulfide electrode (Orion, Ion Plus Silver/Sulfide 9616BNWP) and a commercial lead standard (0.1 M Pb^2+, Orion 948206). The final concentration for sulfide ion in the rumen fluid was approximately 200 mM. This solution was then titrated with a 1 M solution of MnCl2 in water. The progress of the reaction was followed using the silver/sulfide electrode.
Fresh undiluted rumen fluid was obtained from rumen fistulated Holstein cows. 1.5 ml of saturated solution of Na2S in water (approximately 2.7 M) was added to 18.5 ml of the rumen fluid. The final concentration of sulfide ion in the rumen fluid was approximately 200 mM. This solution was then titrated with a 1 M solution of FeCl2 in water. The progress of the reaction was followed using the same silver/sulfide electrode set-up described above (Orion, Ion Plus Silver/Sulfide 9616BNWP).
Data taken from Examples 1 and 2 above were plotted together in order to gauge the relative efficacy of MnCl2 versus FeCl2 in removing sulfide ion from rumen fluid.

[Cl][Fe][Cl] [FeCl2, iron (II) chloride]
concentration of sulfide ion within the rumen fluid (addition of 1 M titrant to ~200 mM sulfide in fresh rumen fluid): effective to reduce the concentration of sulfide ion
total sulfide ion concentrations in the rumen fluid, FeCl2 versus MnCl2 (data of Examples 1 and 2 plotted together (FIG. 3)): lower total sulfide ion concentrations
mVolts (Negative Value) (titrant volume 0.0 of 1M FeCl2): 937.5 mVolts
mVolts (Negative Value) (titrant volume 0.1 of 1M FeCl2): 937.5 mVolts
mVolts (Negative Value) (titrant volume 0.4 of 1M FeCl2): 935.1 mVolts
mVolts (Negative Value) (titrant volume 0.6 of 1M FeCl2): 906.2 mVolts
mVolts (Negative Value) (titrant volume 0.8 of 1M FeCl2): 926.7 mVolts
mVolts (Negative Value) (titrant volume 1.0 of 1M FeCl2): 916.9 mVolts
mVolts (Negative Value) (titrant volume 1.3 of 1M FeCl2): 905.8 mVolts
mVolts (Negative Value) (titrant volume 1.5 of 1M FeCl2): 886.6 mVolts
mVolts (Negative Value) (titrant volume 1.7 of 1M FeCl2): 869.4 mVolts
mVolts (Negative Value) (titrant volume 1.9 of 1M FeCl2): 849.4 mVolts
mVolts (Negative Value) (titrant volume 2.1 of 1M FeCl2): 833.9 mVolts
mVolts (Negative Value) (titrant volume 2.4 of 1M FeCl2): 817.3 mVolts
mVolts (Negative Value) (titrant volume 2.6 of 1M FeCl2): 816.8 mVolts
mVolts (Negative Value) (titrant volume 2.8 of 1M FeCl2): 767.2 mVolts
mVolts (Negative Value) (titrant volume 3.0 of 1M FeCl2): 735.5 mVolts
mVolts (Negative Value) (titrant volume 3.5 of 1M FeCl2): 634.0 mVolts
mVolts (Negative Value) (titrant volume 3.7 of 1M FeCl2): 622.8 mVolts
mVolts (Negative Value) (titrant volume 3.9 of 1M FeCl2): 616.3 mVolts
mVolts (Negative Value) (titrant volume 4.1 of 1M FeCl2): 610.8 mVolts
mVolts (Negative Value) (titrant volume 4.3 of 1M FeCl2): 607.2 mVolts
mVolts (Negative Value) (titrant volume 4.5 of 1M FeCl2): 603.3 mVolts
mVolts (Negative Value) (titrant volume 4.8 of 1M FeCl2): 600.0 mVolts
mVolts (Negative Value) (titrant volume 5.0 of 1M FeCl2): 595.7 mVolts
mVolts (Negative Value) (titrant volume 5.5 of 1M FeCl2): 590.0 mVolts
mVolts (Negative Value) (titrant volume 6.0 of 1M FeCl2): 586.5 mVolts
